From article PMC4503722, “Novel Phenotypic Outcomes Identified for a Public Collection of Approved Drugs from a Publicly Accessible Panel of Assays” (PLoS ONE, 2015)
Read-outs that look alike come from different tables or passages of the source.

What was measured:
[1] = test system: HeLa cells; experiment: cells; assay type: cell-based; conditions: for EC50: read-out: CellCycle G2/M;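 for Hela CellCycMod PI 4N summarized IC50: value tracks stimulation of 4N DNA content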
[2] = test system: DLD-1; experiment: cells; assay type: cell-based
[3] = test system: SW480; experiment: cells; assay type: cell-based
[4] = test system: HCT116; experiment: cells; assay type: cell-based
[5] = test system: HCT116 cells treated with a GSK3β inhibitor; experiment: cells; assay type: cell-based
[6] = test system: Colo320; experiment: cells; assay type: cell-based
[7] = test system: HT-29; experiment: cells; assay type: cell-based
[8] = test system: RKO; experiment: cells; assay type: cell-based
[9] = test system: SNU-C1; experiment: cells; assay type: cell-based
[10] = biological target: T1, hp70S6K1 (RPS6KB1) (Homo sapiens, UniProt P23443); experiment: Cerep LANCE kinase assay hp70S6K1 (S1 assay 31); assay type: biochemical; conditions: read-out: hp70S6K1 LANCE summarized IC50
T1 construct: purchased Cerep (LANCE kinase assay platform, contract assay)
T1 sequence (P23443 whole entry): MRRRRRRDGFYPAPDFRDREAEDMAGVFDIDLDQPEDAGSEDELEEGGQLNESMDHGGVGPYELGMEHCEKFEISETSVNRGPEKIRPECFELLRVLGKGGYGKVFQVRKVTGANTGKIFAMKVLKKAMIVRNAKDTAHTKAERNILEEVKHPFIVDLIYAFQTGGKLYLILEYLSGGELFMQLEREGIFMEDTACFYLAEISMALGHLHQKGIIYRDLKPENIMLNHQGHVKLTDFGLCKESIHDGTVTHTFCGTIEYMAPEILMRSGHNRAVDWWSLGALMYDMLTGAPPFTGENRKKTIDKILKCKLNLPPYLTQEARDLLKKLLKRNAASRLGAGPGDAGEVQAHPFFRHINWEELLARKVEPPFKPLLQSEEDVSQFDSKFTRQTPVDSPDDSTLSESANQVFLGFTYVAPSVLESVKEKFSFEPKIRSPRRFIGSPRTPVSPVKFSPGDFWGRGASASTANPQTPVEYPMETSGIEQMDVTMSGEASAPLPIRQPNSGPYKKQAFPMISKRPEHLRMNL

[11] = biological target: T2, hJAK2 (Homo sapiens, UniProt O60674); experiment: Cerep LANCE kinase assay hJAK2 (S1 assay 33); assay type: biochemical; conditions: assay number 33; read-out: hJAK2 LANCE summarized IC50
T2 construct: purchased Cerep (LANCE kinase assay platform, contract assay)
T2 sequence (O60674 whole entry): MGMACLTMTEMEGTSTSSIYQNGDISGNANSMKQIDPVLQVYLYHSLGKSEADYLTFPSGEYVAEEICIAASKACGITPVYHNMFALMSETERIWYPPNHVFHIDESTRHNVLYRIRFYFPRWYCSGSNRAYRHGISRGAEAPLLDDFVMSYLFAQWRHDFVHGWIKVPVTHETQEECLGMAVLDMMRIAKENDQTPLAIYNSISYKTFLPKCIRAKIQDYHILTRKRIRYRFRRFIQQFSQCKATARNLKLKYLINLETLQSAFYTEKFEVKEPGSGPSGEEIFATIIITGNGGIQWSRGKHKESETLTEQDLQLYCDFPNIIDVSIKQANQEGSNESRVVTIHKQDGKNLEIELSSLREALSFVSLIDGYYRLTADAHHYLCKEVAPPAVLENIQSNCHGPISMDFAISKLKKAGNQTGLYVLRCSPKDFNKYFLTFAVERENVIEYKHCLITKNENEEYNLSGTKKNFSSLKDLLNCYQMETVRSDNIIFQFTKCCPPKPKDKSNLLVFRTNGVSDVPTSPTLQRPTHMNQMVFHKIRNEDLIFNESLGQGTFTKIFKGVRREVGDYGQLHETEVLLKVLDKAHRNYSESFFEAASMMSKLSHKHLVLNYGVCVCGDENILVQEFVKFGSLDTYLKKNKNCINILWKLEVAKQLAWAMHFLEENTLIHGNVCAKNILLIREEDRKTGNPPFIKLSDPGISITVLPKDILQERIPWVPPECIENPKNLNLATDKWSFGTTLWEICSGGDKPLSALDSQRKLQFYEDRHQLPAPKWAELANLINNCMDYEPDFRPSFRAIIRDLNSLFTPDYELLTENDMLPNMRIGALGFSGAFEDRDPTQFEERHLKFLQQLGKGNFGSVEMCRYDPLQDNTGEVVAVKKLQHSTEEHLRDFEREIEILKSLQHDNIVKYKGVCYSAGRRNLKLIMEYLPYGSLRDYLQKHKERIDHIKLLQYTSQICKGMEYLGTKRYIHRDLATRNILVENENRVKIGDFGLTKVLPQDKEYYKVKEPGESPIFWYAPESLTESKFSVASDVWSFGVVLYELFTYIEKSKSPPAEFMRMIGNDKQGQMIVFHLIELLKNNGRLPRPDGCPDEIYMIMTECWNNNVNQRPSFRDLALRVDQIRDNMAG

[12] = biological target: T3, hGSK3b (Homo sapiens, UniProt P49841); experiment: Cerep LANCE kinase assay hGSK3b (S1 assay 34); assay type: biochemical; conditions: read-out: hGSK3b LANCE summarized IC50
T3 construct: purchased Cerep (LANCE kinase assay platform, contract assay)
T3 sequence (P49841 whole entry): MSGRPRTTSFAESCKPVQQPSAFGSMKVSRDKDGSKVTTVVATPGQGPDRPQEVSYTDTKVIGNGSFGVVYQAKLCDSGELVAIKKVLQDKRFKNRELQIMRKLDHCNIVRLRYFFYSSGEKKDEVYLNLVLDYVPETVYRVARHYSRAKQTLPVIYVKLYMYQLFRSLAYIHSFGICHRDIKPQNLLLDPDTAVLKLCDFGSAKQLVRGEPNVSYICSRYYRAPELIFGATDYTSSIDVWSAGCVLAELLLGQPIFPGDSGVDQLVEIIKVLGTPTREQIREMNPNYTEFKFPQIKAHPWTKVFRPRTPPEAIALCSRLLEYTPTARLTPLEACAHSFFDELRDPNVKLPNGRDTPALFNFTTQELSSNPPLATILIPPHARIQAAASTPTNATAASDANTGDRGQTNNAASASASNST

[13] = biological target: T4, hFLT3 (Homo sapiens, UniProt P36888); experiment: Cerep LANCE kinase assay hFLT3 (S1 assay 35); assay type: biochemical; conditions: read-out: hFLT3 LANCE summarized IC50
T4 construct: purchased Cerep (LANCE kinase assay platform, contract assay)
T4 sequence (P36888 27-993): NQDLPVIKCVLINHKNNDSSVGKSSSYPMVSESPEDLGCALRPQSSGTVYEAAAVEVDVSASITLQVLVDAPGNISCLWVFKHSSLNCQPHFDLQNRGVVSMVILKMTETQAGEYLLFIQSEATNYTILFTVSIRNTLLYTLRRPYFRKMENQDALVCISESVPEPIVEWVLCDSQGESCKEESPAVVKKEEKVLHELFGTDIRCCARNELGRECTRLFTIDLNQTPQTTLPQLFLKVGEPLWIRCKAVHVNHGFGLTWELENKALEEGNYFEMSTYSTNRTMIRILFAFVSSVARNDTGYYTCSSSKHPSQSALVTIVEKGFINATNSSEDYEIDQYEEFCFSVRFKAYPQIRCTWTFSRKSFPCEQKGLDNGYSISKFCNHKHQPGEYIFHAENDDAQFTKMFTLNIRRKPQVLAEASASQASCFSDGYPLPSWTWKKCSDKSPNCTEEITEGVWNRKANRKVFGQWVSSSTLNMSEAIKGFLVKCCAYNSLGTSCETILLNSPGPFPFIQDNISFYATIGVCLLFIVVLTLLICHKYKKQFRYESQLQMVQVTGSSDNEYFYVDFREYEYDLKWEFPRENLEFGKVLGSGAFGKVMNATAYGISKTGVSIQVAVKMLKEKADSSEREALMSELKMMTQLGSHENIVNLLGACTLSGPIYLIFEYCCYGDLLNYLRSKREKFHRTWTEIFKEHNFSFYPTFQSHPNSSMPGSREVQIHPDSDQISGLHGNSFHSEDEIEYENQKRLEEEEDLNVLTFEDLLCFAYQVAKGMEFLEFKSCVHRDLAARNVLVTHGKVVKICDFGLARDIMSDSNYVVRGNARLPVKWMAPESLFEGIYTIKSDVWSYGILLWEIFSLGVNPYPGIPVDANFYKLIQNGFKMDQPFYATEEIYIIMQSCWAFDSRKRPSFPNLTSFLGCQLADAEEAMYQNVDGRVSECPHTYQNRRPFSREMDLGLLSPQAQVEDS

[14] = test system: ECFC/ADSC co-culture cell nuclei number; conditions: read-out: VEGF_ADSC\ECFC Angio Hoechst NucArea summarized IC50
[15] = test system: endothelial tube formation in co-cultures of ECFCs and ADSCs treated with VEGF; experiment: cells; assay type: cell-based, human
[16] = test system: nuclear β-catenin in C2C12 cells; experiment: cells; assay type: cell-based
[17] = test system: INS-1E cells; experiment: cells; assay type: cell-based, rat; conditions: read-out: Insulin Secretion
[18] = test system: NCI-H716 cells; experiment: cells; assay type: cell-based, Human
[19] = biological target: T5, hKDR (Homo sapiens, UniProt P35968); experiment: Cerep LANCE kinase assay hKDR (S1 assay 32); assay type: biochemical; conditions: read-out: hKDR LANCE summarized IC50
T5 construct: purchased Cerep (LANCE kinase assay platform, contract assay)
T5 sequence (P35968 20-1356): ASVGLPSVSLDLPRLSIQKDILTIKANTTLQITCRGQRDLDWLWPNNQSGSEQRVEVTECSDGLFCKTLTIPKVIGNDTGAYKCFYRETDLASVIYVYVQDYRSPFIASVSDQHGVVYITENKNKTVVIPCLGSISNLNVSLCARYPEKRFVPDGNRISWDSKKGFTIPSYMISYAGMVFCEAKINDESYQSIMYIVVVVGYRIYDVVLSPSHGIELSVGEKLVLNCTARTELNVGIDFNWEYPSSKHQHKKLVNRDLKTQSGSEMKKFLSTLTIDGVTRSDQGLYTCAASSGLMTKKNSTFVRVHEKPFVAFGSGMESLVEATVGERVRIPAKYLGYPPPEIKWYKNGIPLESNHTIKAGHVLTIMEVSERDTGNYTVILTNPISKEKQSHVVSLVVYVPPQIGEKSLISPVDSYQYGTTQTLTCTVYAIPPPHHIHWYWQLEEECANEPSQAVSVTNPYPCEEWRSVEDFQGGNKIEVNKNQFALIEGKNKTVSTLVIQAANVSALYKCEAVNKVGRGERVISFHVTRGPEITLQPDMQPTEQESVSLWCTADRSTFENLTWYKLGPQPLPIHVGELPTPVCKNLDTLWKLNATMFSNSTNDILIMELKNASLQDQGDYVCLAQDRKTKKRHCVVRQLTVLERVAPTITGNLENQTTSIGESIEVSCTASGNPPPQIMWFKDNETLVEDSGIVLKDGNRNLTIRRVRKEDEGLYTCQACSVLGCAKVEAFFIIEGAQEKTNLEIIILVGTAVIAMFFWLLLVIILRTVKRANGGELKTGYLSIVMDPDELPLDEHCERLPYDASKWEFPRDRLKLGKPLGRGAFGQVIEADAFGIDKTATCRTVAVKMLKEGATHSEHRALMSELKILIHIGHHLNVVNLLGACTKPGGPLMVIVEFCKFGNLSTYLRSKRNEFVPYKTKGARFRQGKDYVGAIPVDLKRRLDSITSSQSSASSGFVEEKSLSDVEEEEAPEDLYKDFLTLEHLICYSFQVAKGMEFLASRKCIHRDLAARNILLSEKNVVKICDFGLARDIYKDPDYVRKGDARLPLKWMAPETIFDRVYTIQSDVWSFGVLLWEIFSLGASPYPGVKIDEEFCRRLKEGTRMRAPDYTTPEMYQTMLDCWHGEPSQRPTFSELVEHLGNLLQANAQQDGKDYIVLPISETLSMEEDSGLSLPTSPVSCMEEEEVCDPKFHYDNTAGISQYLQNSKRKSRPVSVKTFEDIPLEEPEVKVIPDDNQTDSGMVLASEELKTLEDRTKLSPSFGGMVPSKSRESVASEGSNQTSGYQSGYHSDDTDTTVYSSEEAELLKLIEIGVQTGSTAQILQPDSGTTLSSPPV

[20] = read-out: Basal_Viability ATP DLD-1
[21] = read-out: Basal_Viability ATP SW480
[22] = read-out: Basal_Viability ATP HCT116
[23] = read-out: GSK3b inh pretreated_Viability ATP HCT116
[24] = read-out: Basal_Viability ATP Colo 320
[25] = read-out: Basal_Viability ATP HT-29
[26] = read-out: Basal_Viability ATP RKO
[27] = read-out: Basal_Viability ATP SNU-C1
[28] = Homo sapiens, HT-29, read-out: Basal_Viability ATP HT-29

With `CCCCCCCCCCCCCCCC[n+]1ccccc1` [NCGC00091023-06] the IC50 ([1]; assay number 14, 2N, read-out: Hela CellCycMod PI 2N summarized IC50) was 1.25 µM, the IC50 ([1]; assay number 15, S phase, read-out: Hela CellCycMod PI S Phase summarized IC50) was > 10 µM and the IC50 ([1]; assay number 16, 4N, read-out: Hela CellCycMod PI 4N summarized IC50) was > 10 µM. It also gave an IC50 ([1]; assay number 17, MI, read-out: Hela CellCycMod PI MI summarized IC50) of 0.515 µM, an IC50 ([1]; assay number 18, cell number, read-out: Hela CellCycMod PI Cell Number summarized IC50) of 0.405 µM and an IC50 ([2]; assay number 23, basal, read-out: Basal_Viability ATP DLD-1 summarized IC50) of 1.93 µM. For the same compound, the IC50 ([3]; assay number 24, basal, read-out: Basal_Viability ATP SW480 summarized IC50) was 1.61 µM, the IC50 ([4]; assay number 25, basal, read-out: Basal_Viability ATP HCT116 summarized IC50) was 1.19 µM and the IC50 ([5]; assay number 26, GSK3b inhibitor pretreated, read-out: GSK3b inh pretreated_Viability ATP HCT116 summarized IC50) was 2.29 µM. It also gave an IC50 ([6]; assay number 27; basal; read-out: Basal_Viability ATP Colo 320 summarized IC50) of 1.64 µM, an IC50 ([7]; assay number 28, basal, read-out: Basal_Viability ATP HT-29 summarized IC50) of 2.29 µM and an IC50 ([8]; assay number 29; basal; read-out: Basal_Viability ATP RKO summarized IC50) of 1.27 µM. For the same compound, the IC50 ([9]; assay number 30, basal, read-out: Basal_Viability ATP SNU-C1 summarized IC50) was 0.934 µM, the IC50 ([10]; assay number 31) was > 20 µM and the IC50 [11] was > 20 µM. For the same compound, the IC50 ([12]; assay number 34) was > 20 µM, the IC50 ([13]; assay number 35) was > 20 µM and the IC50 [14] was 3.01 µM.

For `O=C([O-])CN(CCN(CC(=O)[O-])CC(=O)O)CCN(CC(=O)[O-])CC(=O)O.[Gd+3]` [Gadopentetic acid], the IC50 ([15]; read-out: Anti-Angiogenesis) was > 10 µM, the EC50 ([16]; read-out: Wnt Pathway) was > 10 µM and the EC50 [17] was > 10 µM. The EC50 ([18]; read-out: GLP 1 Secretion) was > 10 µM, the EC50 [1] was > 10 µM and the IC50 [2, 20] was > 20 µM. The IC50 [3, 21] was 3.14 µM, the IC50 [4, 22] was > 20 µM and the IC50 [5, 23] was 0.896 µM. The IC50 [6, 24] was > 20 µM, the IC50 [7, 25] was > 20 µM and the IC50 [8, 26] was 2.96 µM. The IC50 [9, 27] was > 20 µM.

In the case of `CO[C@@]12[C@H](COC(N)=O)C3=C(C(=O)C(C)=C(N)C3=O)N1C[C@@H]1N[C@@H]12` [Mitomycin], the IC50 ([15]; Homo sapiens, read-out: Anti-Angiogenesis) is reported as 0.102 µM, the EC50 ([16]; Mus musculus, C2C12, read-out: Wnt Pathway) is reported as > 10 µM and the EC50 ([17]; Rattus norvegicus, INS-1E) is reported as > 10 µM. For the same compound, the EC50 ([18]; Homo sapiens, NCI-H716, read-out: GLP 1 Secretion) was > 10 µM, the EC50 ([1]; Homo sapiens, HeLa) was > 10 µM and the IC50 ([2]; Homo sapiens, DLD-1, read-out: Basal_Viability ATP DLD-1) was 5.63 µM. The IC50 ([3]; Homo sapiens, SW480, read-out: Basal_Viability ATP SW480) was 12.1 µM, the IC50 ([4]; Homo sapiens, HCT-116, read-out: Basal_Viability ATP HCT116) was 13.6 µM and the IC50 ([5]; Homo sapiens, HCT-116, read-out: GSK3b inh pretreated_Viability ATP HCT116) was > 20 µM. For the same compound, the IC50 ([6]; Homo sapiens, COLO 320, read-out: Basal_Viability ATP Colo 320) was 12.6 µM, the IC50 [7, 28] was 2.57 µM and the IC50 ([8]; Homo sapiens, RKO, read-out: Basal_Viability ATP RKO) was 0.995 µM. It also gave an IC50 ([9]; Homo sapiens, SNU-C1, read-out: Basal_Viability ATP SNU-C1) of 8.13 µM.

With `CCN1C(=CC=Cc2sc3ccccc3[n+]2CC)Sc2ccccc21` [3,3'-diethylthiacarbocyanine iodide] the IC50 ([15]; read-out: Anti-Angiogenesis) was > 10 µM, the EC50 ([16]; read-out: Wnt Pathway) was > 10 µM and the EC50 [17] was > 10 µM. The EC50 ([18]; read-out: GLP 1 Secretion) was > 10 µM, the EC50 [1] was > 10 µM and the IC50 [2, 20] was 0.0148 µM. The IC50 [3, 21] was 0.172 µM, the IC50 [4, 22] was 0.00957 µM and the IC50 [5, 23] was 0.00875 µM. For the same compound, the IC50 [6, 24] was 0.562 µM, the IC50 [7, 25] was 0.00838 µM and the IC50 [8, 26] was 0.00898 µM. It also gave an IC50 [9, 27] of 0.0172 µM.

`O=C(Nc1ccc([N+](=O)[O-])cc1Cl)c1cc(Cl)ccc1O` [NCGC00015735-11] was tested, and the IC50 ([15]; read-out: VEGF_ADSC\ECFC Angio CD31 TubeArea summarized IC50) was 0.112 µM, the IC50 ([1]; read-out: Hela CellCycMod PI 2N summarized IC50) was > 10 µM and the IC50 ([1]; read-out: Hela CellCycMod PI 4N summarized IC50) was > 10 µM. The IC50 ([1]; read-out: Hela CellCycMod PI Cell Number summarized IC50) was 0.144 µM, the IC50 ([1]; read-out: Hela CellCycMod PI MI summarized IC50) was > 10 µM and the IC50 ([1]; read-out: Hela CellCycMod PI S Phase summarized IC50) was > 10 µM. The IC50 ([2]; read-out: Basal_Viability ATP DLD-1 summarized IC50) was 0.00349 µM, the IC50 ([4]; read-out: Basal_Viability ATP HCT116 summarized IC50) was 0.00144 µM and the IC50 ([5]; read-out: GSK3b inh pretreated_Viability ATP HCT116 summarized IC50) was 0.00295 µM. The IC50 ([6]; read-out: Basal_Viability ATP Colo 320 summarized IC50) was 0.00826 µM, the IC50 [10] was > 20 µM and the IC50 [19] was > 20 µM. For the same compound, the IC50 [12] was > 20 µM, the IC50 [13] was > 20 µM and the IC50 [14] was 5.81 µM.

In the case of `CN(C)CCOC(c1ccccc1)c1ccc(Br)cc1` (stereo not shown) [Bromazine], the IC50 ([15]; Homo sapiens, IC50 / EC50, endothelial tube area, ADSC/ECFC co-culture, read-out: Anti-Angiogenesis) is reported as > 10 µM, the EC50 ([16]; Mus musculus, C2C12, IC50 / EC50, C2C12 beta-catenin translocation, read-out: Wnt Pathway) is reported as > 10 µM and the EC50 ([17]; Rattus norvegicus, IC50 / EC50, INS-1E) is reported as 2.77 µM. For the same compound, the EC50 ([18]; Homo sapiens, IC50 / EC50, NCI-H716, read-out: GLP 1 Secretion) was > 10 µM, the EC50 ([1]; Homo sapiens, HeLa, IC50 / EC50, HeLa) was > 10 µM and the IC50 ([2]; Homo sapiens, DLD-1, basal, read-out: Basal_Viability ATP DLD-1) was > 20 µM. The IC50 ([3]; Homo sapiens, SW480, basal, read-out: Basal_Viability ATP SW480) was > 20 µM, the IC50 ([4]; Homo sapiens, HCT-116, basal, read-out: Basal_Viability ATP HCT116) was > 20 µM and the IC50 ([5]; Homo sapiens, HCT-116, GSK3b inhibitor pretreated, read-out: GSK3b inh pretreated_Viability ATP HCT116) was > 20 µM. For the same compound, the IC50 ([6]; Homo sapiens, COLO 320; read-out: Basal_Viability ATP Colo 320) was > 20 µM, the IC50 [7, 28] was 17 µM and the IC50 ([8]; Homo sapiens, RKO; read-out: Basal_Viability ATP RKO) was > 20 µM. The IC50 ([9]; Homo sapiens, SNU-C1, basal, read-out: Basal_Viability ATP SNU-C1) was 3.1 µM.
